In brackets after ≈: the same amount, converted by molar mass.
Tested on: rat peritoneal mast cells (Rattus norvegicus)
Experiment: In vitro histamine-release activity by using peritoneal cells from male Sprague-Dawley rats in a standard assay

CC(=O)NC(Cc1ccc2ccccc2c1)C(=O)NC(Cc1ccccc1)C(=O)NC(Cc1ccccc1)C(=O)N[C@@H](CO)C(=O)N[C@@H](Cc1ccc(O)cc1)C(=O)NC(Cc1c[nH]c2ccccc12)C(=O)NC(Cc1ccccc1)C(=O)N[C@@H](CC(C)C)C(=O)N1CCC[C@@H]1C(=O)NC(C)C(N)=O (stereo in doubt)
ED50: 46 µg/mL (≈ 32.5 µM)
